Laboratory results published in the supplement of paper PMC11061612.

What was measured:
AZD1775 = compound: C=CCn1c(=O)c2cnc(Nc3ccc(N4CCN(C)CC4)cc3)nc2n1-c1cccc(C(C)(C)O)n1 [AZD1775]; details: max 3 µM
How it was run: (§1)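 Cancer cell lines were plated in 1536-well plates in 7.5 μl of DMEM/F12 or RPMI with 10% FBS and kept 24 hours at 37°C and 5% CO2 before 72 hours of dosing, with final DMSO typically 0.2%. CellTiter-Glo 2.0 luminescence measured viability, scaled between blank-well and DMSO-well means. Dose responses were fitted to a two-parameter logistic curve with a non-linear mixed effects model. This fit gives the single-agent IC50.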

AZD4320 = compound: CN(CC[C@H](CSC1=CC=CC=C1)NC2=C(C=C(C=C2)S(=O)(=O)NC(=O)C3=CC=C(C=C3)N4CCC(CC4)[C@H](C5=CC=CC=C5C6=CC=C(C=C6)Cl)O)S(=O)(=O)C(F)(F)F)CCO [AZD4320]; details: max 1 µM
How it was run: as §1

Capivasertib = compound: C1CN(CCC1(C(=O)N[C@@H](CCO)C2=CC=C(C=C2)Cl)N)C3=NC=NC4=C3C=CN4 [Capivasertib]; details: max 10 µM
How it was run: as §1

AZD5153 = compound: COc1nnc2ccc(N3CCC(c4ccc(OCCN5CCN(C)C(=O)[C@H]5C)cc4)CC3)nn12 [AZD5153]; details: max 1 µM
How it was run: as §1

AZD5991 = compound: Cc1c2c(nn1C)CSCc1cc(n(C)n1)CSc1cc(c3ccccc3c1)OCCCc1c(C(=O)O)n(C)c3c-2c(Cl)ccc13 [AZD5991]; details: max 1 µM
How it was run: as §1

Savolitinib = compound: C[C@@H](c1ccc2nccn2c1)n1nnc2ncc(-c3cnn(C)c3)nc21 [Savolitinib]; details: max 1 µM
How it was run: as §1

AZD7648 = compound: Cc1cc2ncnn2cc1Nc1ncc2c(n1)n(C1CCOCC1)c(=O)n2C [AZD7648]; details: max 10 µM
How it was run: as §1

SN-38 = compound: CCc1c2c(nc3ccc(O)cc13)-c1cc3c(c(=O)n1C2)COC(=O)[C@]3(O)CC [SN-38]; details: max 0.3 µM
How it was run: as §1

Palbociclib = compound: CC(=O)c1c(C)c2cnc(Nc3ccc(N4CCNCC4)cn3)nc2n(C2CCCC2)c1=O [Palbociclib]; details: max 10 µM
How it was run: as §1

AZD6738 = compound: C[C@@H]1COCCN1C2=NC(=NC(=C2)C3(CC3)[S@](=N)(=O)C)C4=C5C=CNC5=NC=C4 [AZD6738]; details: max 10 µM
How it was run: as §1

AZD8186 = compound: C[C@@H](Nc1cc(F)cc(F)c1)c1cc(C(=O)N(C)C)cc2c(=O)cc(N3CCOCC3)oc12 [AZD8186]; details: max 3 µM
How it was run: as §1

Taselisib = compound: Cc1nc(-c2cn3c(n2)-c2ccc(-c4cnn(C(C)(C)C(N)=O)c4)cc2OCC3)n(C(C)C)n1 [Taselisib]; details: max 10 µM
How it was run: as §1

Alisertib = compound: COc1cc(Nc2ncc3c(n2)-c2ccc(Cl)cc2C(c2c(F)cccc2OC)=NC3)ccc1C(=O)O [Alisertib]; details: max 10 µM
How it was run: as §1

Gefitinib = compound: COc1cc2ncnc(Nc3ccc(F)c(Cl)c3)c2cc1OCCCN1CCOCC1 [Gefitinib]; details: max 10 µM
How it was run: as §1

Prexasertib = compound: COc1cccc(OCCCN)c1-c1cc(Nc2cnc(C#N)cn2)n[nH]1 [Prexasertib]; details: max 1 µM
How it was run: as §1

SG3199 = compound: CC1=CN2[C@@H](C1)C=NC3=CC(=C(C=C3C2=O)OC)OCCCCCOC4=C(C=C5C(=C4)N=C[C@@H]6CC(=CN6C5=O)C)OC [SG3199]; details: max 0.001 µM
How it was run: as §1

AZD2811 = compound: CCN(CCO)CCCOc1ccc2c(Nc3cc(CC(=O)Nc4cccc(F)c4)[nH]n3)ncnc2c1 [AZD2811]; details: max 1 µM
How it was run: as §1

AZD1390 = compound: CC(C)n1c(=O)n(C)c2cnc3cc(F)c(-c4ccc(OCCCN5CCCCC5)nc4)cc3c21 [AZD1390]; details: max 0.3 µM
How it was run: as §1

Trametinib = compound: CC(=O)Nc1cccc(-n2c(=O)n(C3CC3)c(=O)c3c(Nc4ccc(I)cc4F)n(C)c(=O)c(C)c32)c1 [Trametinib]; details: max 1 µM
How it was run: as §1

Crizotinib = compound: C[C@@H](Oc1cc(-c2cnn(C3CCNCC3)c2)cnc1N)c1c(Cl)ccc(F)c1Cl [Crizotinib]; details: max 10 µM
How it was run: as §1

Lapatinib = compound: CS(=O)(=O)CCNCc1ccc(-c2ccc3ncnc(Nc4ccc(OCc5cccc(F)c5)c(Cl)c4)c3c2)o1 [Lapatinib]; details: max 10 µM
How it was run: as §1

Dasatinib = compound: CC1=C(C(=CC=C1)Cl)NC(=O)C2=CN=C(S2)NC3=CC(=NC(=N3)C)N4CCN(CC4)CCO [Dasatinib]; details: max 2 µM
How it was run: as §1

AZD0156 = compound: CN(C)CCCOc1ccc(-c2ccc3ncc4c(c3c2)n(C2CCOCC2)c(=O)n4C)cn1 [AZD0156]; details: max 3 µM
How it was run: as §1

Selumetinib = compound: Cn1cnc2c(F)c(Nc3ccc(Br)cc3Cl)c(C(=O)NOCCO)cc21 [Selumetinib]; details: max 10 µM
How it was run: as §1

Olaparib = compound: O=C(c1cc(Cc2n[nH]c(=O)c3ccccc23)ccc1F)N1CCN(C(=O)C2CC2)CC1 [Olaparib]; details: max 10 µM
How it was run: as §1

Doxorubicin = compound: COc1cccc2c1C(=O)c1c(O)c3c(c(O)c1C2=O)C[C@@](O)(C(=O)CO)C[C@@H]3O[C@H]1C[C@H](N)[C@H](O)[C@H](C)O1 [Doxorubicin]; details: max 1 µM
How it was run: as §1

Venetoclax = compound: CC1(C)CCC(CN2CCN(c3ccc(C(=O)NS(=O)(=O)c4ccc(NCC5CCOCC5)c([N+](=O)[O-])c4)c(Oc4cnc5[nH]ccc5c4)c3)CC2)=C(c2ccc(Cl)cc2)C1 [Venetoclax]; details: max 1 µM
How it was run: as §1

| Cell Line | IC50, cell viability 72 h (AZD1775) | IC50, cell viability 72 h (AZD4320) | IC50, cell viability 72 h (Capivasertib) | IC50, cell viability 72 h (AZD5153) | IC50, cell viability 72 h (AZD5991) | IC50, cell viability 72 h (Savolitinib) | IC50, cell viability 72 h (AZD7648) | IC50, cell viability 72 h (SN-38) | IC50, cell viability 72 h (Palbociclib) | IC50, cell viability 72 h (AZD6738) | IC50, cell viability 72 h (AZD8186) | IC50, cell viability 72 h (Taselisib) | IC50, cell viability 72 h (Alisertib) | IC50, cell viability 72 h (Gefitinib) | IC50, cell viability 72 h (Prexasertib) | IC50, cell viability 72 h (SG3199) | IC50, cell viability 72 h (AZD2811) | IC50, cell viability 72 h (AZD1390) | IC50, cell viability 72 h (Trametinib) | IC50, cell viability 72 h (Crizotinib) | IC50, cell viability 72 h (Lapatinib) | IC50, cell viability 72 h (Dasatinib) | IC50, cell viability 72 h (AZD0156) | IC50, cell viability 72 h (Selumetinib) | IC50, cell viability 72 h (Olaparib) | IC50, cell viability 72 h (Doxorubicin) | IC50, cell viability 72 h (Venetoclax) |
| --- | --- | --- | --- | --- | --- | --- | --- | --- | --- | --- | --- | --- | --- | --- | --- | --- | --- | --- | --- | --- | --- | --- | --- | --- | --- | --- | --- |
| NOS-1 (Osteosarcoma) | 757 nM | > 1000 nM | > 10000 nM | 119 nM | 361 nM | > 1000 nM | > 10000 nM | > 300 nM | > 10000 nM | 7740 nM | > 3000 nM | 1440 nM | > 10000 nM | > 10000 nM | > 1000 nM | > 1 nM | > 1000 nM | > 300 nM | > 1000 nM | 7980 nM | > 10000 nM | 192 nM | > 3000 nM | > 10000 nM | > 10000 nM | > 1000 nM | > 1000 nM |
| Daoy (Other Solid Carcinomas) | 398 nM | > 1000 nM | > 10000 nM | 489 nM | > 1000 nM | > 1000 nM | > 10000 nM | 4.44 nM | > 10000 nM | 3180 nM | > 3000 nM | 4730 nM | 818 nM | > 10000 nM | 46.7 nM | > 1 nM | > 1000 nM | > 300 nM | > 1000 nM | > 10000 nM | > 10000 nM | > 2000 nM | > 3000 nM | > 10000 nM | > 10000 nM | 141 nM | > 1000 nM |
| LNCaP-Clone-FGC (Prostate Carcinoma) | 811 nM | > 1000 nM | 134 nM | 94.4 nM | > 1000 nM | > 1000 nM | > 10000 nM | 30.8 nM | > 10000 nM | 3580 nM | 129 nM | 957 nM | > 10000 nM | > 10000 nM | 35.6 nM | > 1 nM | > 1000 nM | > 300 nM | > 1000 nM | 8700 nM | > 10000 nM | > 2000 nM | > 3000 nM | > 10000 nM | > 10000 nM | 170 nM | > 1000 nM |
